Reference: article PMC6264390, “Design, Synthesis and Structure-activity Studies of Rhodanine Derivatives as HIV-1 Integrase Inhibitors” (Molecules, 2010)
Read-outs that look alike come from different tables or passages of the source.

What was measured:
[1] = target: T1, HIV-1 IN (Human immunodeficiency virus type 1 group M subtype B, UniProt P12497); test: In vitro IN inhibition assay (3’-processing and strand transfer); type: biochemical; details: Mn2+ cofactor (7.5 mM MnCl2)
T1 construct: pre-incubated with purified recombinant IN (at a final concentration of 200 nM); made in house
Protocol: (§1) All compounds were dissolved in DMSO to a final stock concentration of 10 mM and stored at −20 °C. Initial screening for IN inhibitory effect was done at 100 μM and dilutions were made in DMSO. Compounds showing at least 50% inhibition at 100 μM were selected for IC50 determinations. γ-[^32P]-ATP was purchased from Perkin Elmer (Waltham, MA, USA). The expression system for wild-type IN was a generous gift of Dr. Robert Craigie, Laboratory of Molecular Biology, NIDDK, NIH (Bethesda, MD, USA). His-tagged APE1 was purified from an expression system kindly provided by Dr. Tom Curran, Department of Developmental Neurobiology, St. Jude Children’s Research Hospital (Memphis, TN, USA).
(§2) 21-mer oligonucleotides used in IN inhibition assay [21top (5’-[…]-3’) and 21bot (5’-ACTGCTAGAGATTTTCCA CAC-3’)] were purchased from Integrated DNA Technologies (Coralville, IA, USA) and purified by UV shadowing on polyacrylamide gel. The oligonucleotides used in APE1 inhibition assay [top strand: 5′-ATTTCACCGGTACG(F)TCTAGAATC CG-3′ containing the tetrahydrofuran synthetic abasic residue (F), and bottom strand: 3′-TAAAGTGG CCATGC(C)AGATCTTAGGC-5′] were purchased from The Midland Certified Reagent Company (Midland, TX, USA). To analyze the extent of 3’-processing and strand transfer with 5’-end labeled substrates, 21top was 5’-end labeled using T4 polynucleotide kinase (Epicentre, Madison, WI, USA) and [γ-^32P]-ATP (Perkin Elmer, Waltham, MA, USA). The kinase was heat-inactivated at 95 °C and 21bot was added in […]. The reaction mixture was allowed to cool slowly to room temperature, and purified through a spin-25 minicolumn (USA Scientific, Ocala, FL, USA) to separate annealed double-stranded oligonucleotide from unincorporated material. The oligonucleotides used in the APE1 inhibition assay were labeled using a similar protocol.
To determine the extent of 3’-processing and strand transfer, the test compounds, diluted in DMSO, were pre-incubated with purified recombinant IN (at a final concentration of 200 nM) in the reaction buffer [50 mM NaCl, 1 mM HEPES (pH 7.5), 50 μM EDTA, 50 μM dithiothreitol, 10% glycerol (w/v), 7.5 mM MnCl2, 0.1 mg mL–1 bovine serum albumin, 10 mM 2-mercaptoethanol, 10% dimethyl sulfoxide, and 25 mM MOPS (pH 7.2)] at 30 °C for 30 min. For Mg^2+ assay, 7.5 mM MgCl2 was substituted for MnCl2 and an optimal concentration of PEG was included in the reaction buffer. Following the pre-incubation, 20 nM of the 5’-end ^32P-labeled linear oligonucleotide substrate was added to the reaction mixture and incubated for an additional 1 h. Reactions were quenched by addition of 50X loading dye (98% deionized formamide, 10 mM EDTA, 0.025% xylene cyanol, and 0.025 % bromophenol blue). An aliquot was subjected to electrophoresis on a denaturing polyacrylamide gel (0.09 M tris–borate, pH 8.3, 2 mM EDTA, 20% acrylamide, 8M urea). Gels were dried under vacuum, exposed in a PhosphorImager cassette and visualized with a Typhoon 8610 Variable Mode Imager (Amersham Biosciences). Quantification was done with Image Quant 5.2 software. Percent inhibition (%I) was calculated using the following equation: %I = 100 × [1 − (D − C) / (N − C)] where C, N, and D are the fractions of 21-mer substrate converted into 19-mer (product of 3’-processing) or strand-transfer products for DNA alone, DNA plus IN, and DNA, IN plus test compound, respectively. IC50 values were determined by plotting the logarithm of test compound concentrations as a function of %I to obtain the concentration that produced 50% inhibition.

[2] = target: T2, human apurinic/apyrimidinic endonuclease 1 (APE1) (Homo sapiens, UniProt P27695); test: APE1 inhibition assay; type: biochemical; details: read-out: Inhibition of APE1 catalytic activity IC50
T2 construct: His; made in house
T2 sequence (P27695 whole entry): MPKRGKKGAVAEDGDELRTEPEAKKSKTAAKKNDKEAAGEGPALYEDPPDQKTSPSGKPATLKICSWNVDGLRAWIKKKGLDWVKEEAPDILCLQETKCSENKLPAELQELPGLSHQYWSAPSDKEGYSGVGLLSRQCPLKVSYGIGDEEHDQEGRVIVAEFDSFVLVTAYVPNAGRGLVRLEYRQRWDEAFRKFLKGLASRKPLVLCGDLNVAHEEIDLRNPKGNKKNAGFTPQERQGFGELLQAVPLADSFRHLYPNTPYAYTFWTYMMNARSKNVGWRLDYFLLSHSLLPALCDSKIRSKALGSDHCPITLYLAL
Protocol: as §1, §2
APE1 inhibition assay was performed as previously described. To determine the extent of endonucleolytic cleavage of the abasic residue, the test compounds, diluted in DMSO, were preincubated with recombinant APE1 at a final concentration of 0.05 nM in the reaction buffer [50 mM NaCl, 1 mM HEPES, pH 7.5, 50 μM EDTA, 50 μM dithiothreitol, 10% glycerol (w/v), 7.5 mM MnCl2, 0.1 mg mL‑1 bovine serum albumin, 10 mM 2-mercaptoethanol, 10% DMSO, and 25 mM MOPS, pH 7.2] at 30 °C for 10 min. Following preincubation, 200 nM of the 5′-end ^32P-labeled linear oligonucleotide substrate was added, and incubated for an additional 10 minutes. Reactions were quenched by the addition of an equal volume (16 μL) of loading dye (98% deionized formamide, 10 mM EDTA, 0.025% xylene cyanol, and 0.025% bromophenol blue). An aliquot (5 μL) was electrophoresed on a denaturing 20% polyacrylamide gel (0.09 M tris-borate pH 8.3, 2 mM EDTA, 20% acrylamide, 8 M urea). The gels were dried, exposed in a PhosphorImager cassette and analyzed using a Typhoon 8610 Variable Mode Imager (Amersham Biosciences). Quantification of enzyme inhibition was done using Image Quant 5.2 software. The percent inhibition (% I) was calculated using the following equation: %I = 100 × [1 − (D − C) / (N − C)] where C, N, and D are the fractions of 26-mer substrate converted to 13-mer incision products (or integration products) for DNA alone, DNA plus APE1, and DNA, APE1 plus test compound, respectively. IC50 values were determined by plotting the logarithm of compound concentration as a function of %I to obtain the concentration that produced 50% inhibition. An optimum concentration of APE1 enzyme, at which there is complete conversion of the synthetic abasic-site containing oligonucleotide substrate to its cleaved product without subsequent exonuclease activity, was used in the assay.

[3] = read-out: Inhibition of IN catalytic activity IC50, 3’-Processing
[4] = read-out: Inhibition of IN catalytic activity IC50, Strand Transfer

SMILES	IC50 [1, 3] [µM]	IC50 [1, 4] [µM]	melting point [°C]	IC50 [2] [µM]
COc1cc(NC(=O)C(=S)NN2C(=O)C(=Cc3ccc([N+](=O)[O-])o3)SC2=S)cc(OC)c1OC [Compound 19, 2-{5-[(5-Nitro-2-furyl)methylene]-4-oxo-2-thioxo-1,3-thiazolidin-3-yl}amino-2-thioxo-N-(3,4,5-tri-methoxyphenyl)acetamide]	40 ± 28	25 ± 11	201 to 202	> 100
CCOc1cc(-n2cnnn2)c(OCC)cc1NC(=O)C(=S)NN1C(=O)C(=Cc2ccc([N+](=O)[O-])o2)SC1=S [Compound 20, N-[2,5-diethoxy-4-(1H-tetrazol-1-yl)phenyl]-2-{5-[(5-nitro-2-furyl)methylene]-4-oxo-2-thioxo-1,3-thiazolidin-3-yl}amino-2-thioxoacetamide]	> 100	85 ± 21	136 to 138	> 100
Cc1cc(NC(=O)C(=S)NN2C(=O)/C(=C\c3ccc([N+](=O)[O-])o3)SC2=S)ccc1-n1cnnn1 [Compound 21, N-[3-methyl-4-(1H-tetrazol-1-yl)phenyl]-2-{5-[(5-nitro-2-furyl)methylene]-4-oxo-2-thioxo-1,3-thia-zolidin-3-yl}amino-2-thioxoacetamide]	> 100	> 100	161 to 162	> 100
COc1cc(C=C2SC(=S)N(NC(=S)C(=O)Nc3cc(OC)c(OC)c(OC)c3)C2=O)cc(OC)c1OC [Compound 22, 2-{[4-Oxo-2-thioxo-5-(3,4,5-trimethoxybenzylidene)-1,3-thiazolidin-3-yl]amino}-2-thioxo-N-(3,4,5-tri-methoxyphenyl)acetamide]	> 100	90	196 to 197	> 100
CCOc1cc(-n2cnnn2)c(OCC)cc1NC(=O)C(=S)NN1C(=O)C(=Cc2cc(OC)c(OC)c(OC)c2)SC1=S [Compound 23, N-[2,5-diethoxy-4-(1H-tetrazol-1-yl)phenyl]-2-{[4-oxo-2-thioxo-5-(3,4,5-trimethoxybenzylidene)-1,3-thiazolidin-3-yl]amino}-2-thioxoacetamide]	> 100	> 100	158 to 159	83
COc1cc(C=C2SC(=S)N(NC(=S)C(=O)Nc3ccc(-n4cnnn4)c(C)c3)C2=O)cc(OC)c1OC [Compound 24, N-[3-methyl-4-(1H-tetrazol-1-yl)phenyl]-2-{[4-oxo-2-thioxo-5-(3,4,5-trimethoxybenzylidene)-1,3-thiazolidin-3-yl]amino}-2-thioxoacetamide]	> 100	> 100	173 to 174	> 100
COc1cc(C=C2SC(=S)N(NC(=S)C(=O)Nc3cccc(C(F)(F)F)c3)C2=O)cc(OC)c1OC [Compound 25, 2-{[4-Oxo-2-thioxo-5-(3,4,5-trimethoxybenzylidene)-1,3-thiazolidin-3-yl]amino}-2-thioxo-N-[3-(tri-fluoromethyl)phenyl]acetamide]	> 100	> 100	160 to 161	> 100
COc1cc(NC(=O)C(=S)NN2C(=O)C(=Cc3cc(Cl)ccc3O)SC2=S)cc(OC)c1OC [Compound 27, 2-{[5-(5-Chloro-2-hydroxybenzylidene)-4-oxo-2-thioxo-1,3-thiazolidin-3-yl]amino}-2-thioxo-N-(3,4,5-trimethoxyphenyl)acetamide]	83 ± 25	20	216 to 217	> 100
COc1cc(NC(=O)C(=S)NN2C(=O)C(=Cc3cc(Br)ccc3O)SC2=S)cc(OC)c1OC [Compound 28, 2-{[5-(5-Bromo-2-hydroxybenzylidene)-4-oxo-2-thioxo-1,3-thiazolidin-3-yl]amino}-2-thioxo-N-(3,4,5-trimethoxyphenyl)acetamide]	44 ± 13	30 ± 19	208 to 209	> 100
COc1cc(NC(=O)C(=S)NN2C(=O)C(=Cc3cccc([N+](=O)[O-])c3O)SC2=S)cc(OC)c1OC [Compound 29, 2-{[5-(2-Hydroxy-3-nitrobenzylidene)-4-oxo-2-thioxo-1,3-thiazolidin-3-yl]amino}-2-thioxo-N-(3,4,5-trimethoxyphenyl)acetamide]	74 ± 18	72 ± 23	193 to 194	> 100
COc1cc(NC(=O)C(=S)NN2C(=O)C(=Cc3cc([N+](=O)[O-])ccc3O)SC2=S)cc(OC)c1OC [Compound 30, 2-{[5-(2-Hydroxy-5-nitrobenzylidene)-4-oxo-2-thioxo-1,3-thiazolidin-3-yl]amino}-2-thioxo-N-(3,4,5-trimethoxyphenyl)acetamide]	47 ± 30	> 100	205 to 206	> 100
CCOc1cccc(C=C2SC(=S)N(NC(=S)C(=O)Nc3cc(OC)c(OC)c(OC)c3)C2=O)c1O [Compound 31, 2-{[5-(3-Ethoxy-2-hydroxybenzylidene)-4-oxo-2-thioxo-1,3-thiazolidin-3-yl]amino}-2-thioxo-N-(3,4,5-trimethoxyphenyl)acetamide]	> 100	> 100	231 to 232	> 100
C=CCc1cccc(C=C2SC(=S)N(NC(=S)C(=O)Nc3cc(OC)c(OC)c(OC)c3)C2=O)c1O [Compound 32, 2-{[5-(3-Allyl-2-hydroxybenzylidene)-4-oxo-2-thioxo-1,3-thiazolidin-3-yl]amino}-2-thioxo-N-(3,4,5-trimethoxyphenyl)acetamide]	82 ± 5	83 ± 3	174 to 175	> 100
